This is an account of results in paper PMC7070682, “Alpha-Glucosidase- and Lipase-Inhibitory Phenalenones from a New Species of Pseudolophiostoma Originating from Thailand” (Molecules, 2020).

Values after ≈ are worked out from the molar mass of the structure shown. Bounds are passed on as bounds.

The target in one assay is α-glucosidase. Nature of the assay: α-Glucosidase assay (p-NPG substrate). It is filed as biochemical. The protocol:
α-Glucosidase assay. The substrates p-nitrophenyl α-glucopyranoside (p-NPG) and α-glucosidase were purchased from Sigma (St. Louis, USA). […] The standard assay protocol established by the Enzyme Inhibition Laboratory was adopted with minor modifications. First, 0.85 units/mL enzyme and 0.7mM of substrate were used for the initial screening of the fungal extracts, and 100mM sodium phosphate buffer containing 50 mM NaCl was prepared in deionized water (pH 6.8). The change in the absorbance was monitored initially before incubation and 30 min after the addition of p-NPG substrate. Percentage inhibition of enzyme by various test compounds was calculated using the formula: % inhibition= (ABS of Blank −ABS of Sample)/ABS of Blank× 100

For another assay, the target named is T1, porcine lipase (Sus scrofa, UniProt P00591).
T1 sequence (P00591 1-450): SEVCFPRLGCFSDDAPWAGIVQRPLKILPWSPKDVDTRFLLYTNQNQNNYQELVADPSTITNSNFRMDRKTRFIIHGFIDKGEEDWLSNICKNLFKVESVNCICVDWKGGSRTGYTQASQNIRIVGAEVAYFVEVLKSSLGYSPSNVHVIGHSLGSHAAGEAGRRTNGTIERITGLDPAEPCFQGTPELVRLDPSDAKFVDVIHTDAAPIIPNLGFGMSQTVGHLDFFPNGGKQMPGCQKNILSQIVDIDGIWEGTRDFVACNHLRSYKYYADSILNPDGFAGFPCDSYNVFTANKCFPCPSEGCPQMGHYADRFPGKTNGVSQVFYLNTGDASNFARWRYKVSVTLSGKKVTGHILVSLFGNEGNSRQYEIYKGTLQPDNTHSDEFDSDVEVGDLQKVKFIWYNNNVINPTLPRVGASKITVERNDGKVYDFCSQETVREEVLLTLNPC
Nature of the assay: Pancreatic lipase assay (p-nitrophenyl butyrate hydrolysis). It is filed as biochemical. Conditions: for IC50: p-nitrophenyl butyrate substrate. As to the method: Pancreatic Lipase Assay. […] Thirty five microliters of each test compound in DMSO, 15 µL of pancreatic lipase enzyme (1 mg/mL buffer), and 45 µL Tris-HCl buffer (2.5 mmol Tris, pH = 7.4 and 2.5 mmol NaCl) were mixed in a 96 well microtiter plate and incubated at 25 °C for 15 min. The enzymatic hydrolysis was started upon the addition of 15 µL p-nitrophenyl butyrate (p-NPB). The number of p-nitrophenolate ions generated by the reaction was monitored using microplate reader, measured before incubation and 30 min after the addition of the substrate with corresponding change in absorbance at 405 nm.

The test system of assay [1] is mouse fibroblast (L929) cells. Nature of the assay: Cytotoxicity assessment vs. L929. It counts as cell-based. The protocol: (§1) To verify the predicted toxicity of compounds 1–3, a cytotoxicity assessment (Table 4) was performed against mouse fibroblast (L929) and HeLa (KB3.1) cells, as previously reported.
(§2) The cytotoxic effects of the compounds were evaluated using a standard procedure.

Another assay deals with HeLa (KB3.1) cells. Nature of the assay: Cytotoxicity assessment vs. KB3.1. It counts as cell-based. The following applies: Homo sapiens, KB 3-1. As to the method: as §1, §2
On the set-up of assay [2]: method as in PMID 21923104. The following applies: previously shown; cited from earlier work.

What is called IC50 is the concentration at which inhibition is half-maximal. Read a high IC50 as weaker potency in that assay. For the compound `Cc1cc(O)c2c3c(c(O)c4c(c13)O[C@@H](C)C4(C)C)C(=O)C(=O)O2` [Compound 1, scleroderolide], the IC50 came to 48.7 µM against α-glucosidase, 3.4 µM against porcine lipase, 15 µg/mL (≈ 45.7 µM) in assay [1] and 21 µg/mL (≈ 64 µM) in the assay with HeLa (KB3.1) cells.

Consider `Cc1cc(O)c2c3c(c(O)c4c(c13)O[C@@H](C)C4(C)C)C(=O)C2=O` [Compound 2, sclerodione], for which the IC50 came out at 120 µM at α-glucosidase, 1 µM against porcine lipase, 27 µg/mL (≈ 86.4 µM) in assay [1] and 18 µg/mL (≈ 57.6 µM) with HeLa (KB3.1) cells. Further, the “times more potent than orlistat (lipase inhibition)” value on porcine lipase (relative to positive control orlistat) stood at 9 times. The antimicrobial activities result in assay [2] is reported as “moderate”.

As to `Cc1cc(O)cc2c1C1=C(C(=O)C2=O)C(C)(C)[C@H](C)O1` [Compound 3, trypethelone], the IC50 against α-glucosidase was above 100 µM; on porcine lipase, above 100 µM; in assay [1], 2.7 µg/mL (≈ 9.92 µM); with HeLa (KB3.1) cells it was 4.2 µg/mL (≈ 15.4 µM).

As for `C/C(=C\c1csc(C)n1)[C@@H]1C[C@@H]2O[C@]2(C)CCC[C@H](C)[C@H](O)[C@@H](C)C(=O)C(C)(C)[C@@H](O)CC(=O)O1` [Epothilone B, reference compound], the IC50 in assay [1] was 0.0009 µg/mL (≈ 0.00177 µM); in the assay with HeLa (KB3.1) cells, 4e-05 µg/mL (≈ 7.88e-05 µM).
